Data as given in patent US20230330122A1, “PHARMACOLOGICAL TREATMENT OF AUTISM SPECTRUM DISORDER” (priority 2022, published 2023).

What was measured:
[1] = tested on: SHANK3 autism mouse model; test: Compulsive behavior in SHANK3 autism mouse model; type: in vivo
From the text: FIGS. 5 and 6 present data collected by experiments using a SH3 And Multiple Ankyrin Repeat Domains 3 (SHANK3) autism mouse model. SHANK3 was the first to be associated with autism which was used by Joao Peca et al. (2011) to create the mouse model currently in use. […] The SHANK family of proteins has been strongly implicated as a contributing factor in autism in certain individuals and sits at the core of the alleged autistic pathway. The SHANK proteins lie at the heart of this synaptic map of autistic pathology, binding to Metabotropic Glutamate Receptors (mGluRs) indirectly, via the Homer family of adaptor proteins, and to both N-methyl-D-aspartate receptors (NMDARS) and Neuroligins (NLGNs) indirectly, via guanylate kinase-associated protein (GKAP) and Postsynaptic density protein 95 (PSD-95). They also link to the actin cytoskeleton, providing a multivalent scaffold upon which to build the postsynaptic density.
Compulsive behavior was used as a readout to evaluate the effectiveness of autistic symptom amelioration through NMN treatment. […] A baseline was recorded for both groups. The effect of a placebo was evaluated for both groups. NMN was administered to subjects of each group and the results were recorded. The results of treatment with NMN over 1 week were also recorded.

OCD mouse models = conditions: 3 different mouse models; cited from earlier work

Structure (SMILES) | compulsive behavior in seconds observed over a 5-minute period ([1]; SHANK3 autistic group and control group, NMN administered, also NMN over 1 week, FIG. 5) | safety of treatment ([1]; SHANK3 mouse model, NMN treatment) | treating OCD (OCD mouse models)
NC(=O)c1ccc[n+]([C@@H]2O[C@H](COP(=O)([O-])O)[C@@H](O)[C@H]2O)c1 [NMN, nicotinamide mononucleotide] | significantly reducing the exhibition of compulsive behavior | SAFE | 
O=C(O)C(Cc1c[nH]c2ccccc12)N1C(=O)c2ccccc2C1=O (stereo not drawn) [RG108] |  |  | successful in treating OCD
